Data taken from patent US7659399B2, “1-thia-2,4a-diaza-cyclopenta[b]napththalene-3,4-diones and related compounds as anti-infective agents” (Achillion Pharmaceuticals, Inc., priority 2005, dated 2010).
Where a name gives a salt, the structure may show the parent alone.

Key:
E. coli ATCC 25922 = assay: Minimum inhibitory concentration (MIC) assay, broth microdilution; assay type: cell-based; details: Escherichia coli, ATCC25922
Method: (§1) The antimicrobial activity of the compounds of the invention may be evaluated by a number of methods, including the following visual minimum inhibitory concentration (MIC) assay. This assay determines the minimum concentration of compound required to inhibit growth of a bacterial strain.
(§2) Whole-cell antibacterial activity is determined by broth microdilution using conditions recommended by the National Committee for Clinical Laboratory Standards (NCCLS).
(§3) Test compounds are dissolved in DMSO and diluted 1:50 in Mueller-Hinton II broth (Becton-Dickinson) to produce a 256 μg/ml stock solution. In a 96-well microtiter plate, the compound solution is serially two-fold diluted in Mueller-Hinton II broth. After the compounds are diluted, a […] aliquot of the test organism (˜1×10^6 cfu/mL) is added to each well of the microtiter plate. The final test concentrations range from 0.125-128 μg/mL. Inoculated plates are incubated in ambient air at 37° C. for 18 to 24 hours. The organisms selected for testing included laboratory strains S. aureus ATCC 29213 and E. coli ATCC 25922 (strains purchased from American Type Culture Collection, Manassas, Va.). The minimum inhibitory concentration (MIC) was determined as the lowest concentration of compound that inhibited visible growth of the test organism.

S. aureus ATCC 29213 = assay: as above; assay type: cell-based; details: Staphylococcus aureus, ATCC29213
Method: as §1, §2, §3

E. coli DNA gyrase = target: T1, E. coli DNA gyrase (Escherichia coli, UniProt P0AES4+P0AES6); assay: DNA gyrase supercoiling assay; assay type: biochemical
T1 construct: made in house; host or cells: E. coli
T1 sequence (P0AES4 whole entry, one chain of several): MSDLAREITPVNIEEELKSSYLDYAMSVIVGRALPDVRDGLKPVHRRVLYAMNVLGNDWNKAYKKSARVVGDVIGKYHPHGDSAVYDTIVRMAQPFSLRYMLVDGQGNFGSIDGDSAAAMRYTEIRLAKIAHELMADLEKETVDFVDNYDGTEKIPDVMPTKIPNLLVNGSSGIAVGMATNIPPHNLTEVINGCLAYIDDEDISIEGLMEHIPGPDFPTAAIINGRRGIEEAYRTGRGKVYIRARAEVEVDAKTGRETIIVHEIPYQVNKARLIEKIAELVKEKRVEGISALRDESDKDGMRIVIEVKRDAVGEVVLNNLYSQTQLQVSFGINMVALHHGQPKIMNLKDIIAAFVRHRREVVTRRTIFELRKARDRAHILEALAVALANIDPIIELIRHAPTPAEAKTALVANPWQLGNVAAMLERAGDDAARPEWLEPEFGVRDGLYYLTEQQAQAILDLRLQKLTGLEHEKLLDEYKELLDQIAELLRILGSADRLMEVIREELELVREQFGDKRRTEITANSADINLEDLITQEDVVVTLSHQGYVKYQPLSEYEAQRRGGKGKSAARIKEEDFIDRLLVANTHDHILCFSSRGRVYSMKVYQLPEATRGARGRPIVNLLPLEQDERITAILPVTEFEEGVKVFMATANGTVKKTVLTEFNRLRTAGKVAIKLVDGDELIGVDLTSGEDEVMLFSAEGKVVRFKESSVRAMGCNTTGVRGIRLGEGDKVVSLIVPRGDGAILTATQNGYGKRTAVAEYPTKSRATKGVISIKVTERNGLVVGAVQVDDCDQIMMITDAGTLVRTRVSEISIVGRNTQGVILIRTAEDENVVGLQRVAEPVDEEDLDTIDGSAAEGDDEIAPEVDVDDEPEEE
Method: Enzyme activity is measured by a supercoiling assay that monitors the ATP-dependent conversion of relaxed pBR322 DNA to the supercoiled form. Analysis is done by gel electrophoresis through 1% agarose/TBE gel. DNA is visualized with an Alpha Imager 2200 Analysis System and the IC50 determined by nonlinear regression analysis with Graphpad Prism software. E. coli DNA gyrase enzyme subunits, gyrA and gyrB, are purified to homogeneity from over-expression constructs in E. coli.

[1] = target: T2, S. aureus topoisomerase IV (Staphylococcus aureus, UniProt P0C1S7+P0C1U9); assay: Topoisomerase IV decatenation assay; assay type: biochemical; details: decatenation of kinetoplast DNA; read-out: inhibition of S. aureus topoisomerase IV activity IC50
T2 construct: made in house; host or cells: E. coli
T2 sequence (P0C1U9 whole entry): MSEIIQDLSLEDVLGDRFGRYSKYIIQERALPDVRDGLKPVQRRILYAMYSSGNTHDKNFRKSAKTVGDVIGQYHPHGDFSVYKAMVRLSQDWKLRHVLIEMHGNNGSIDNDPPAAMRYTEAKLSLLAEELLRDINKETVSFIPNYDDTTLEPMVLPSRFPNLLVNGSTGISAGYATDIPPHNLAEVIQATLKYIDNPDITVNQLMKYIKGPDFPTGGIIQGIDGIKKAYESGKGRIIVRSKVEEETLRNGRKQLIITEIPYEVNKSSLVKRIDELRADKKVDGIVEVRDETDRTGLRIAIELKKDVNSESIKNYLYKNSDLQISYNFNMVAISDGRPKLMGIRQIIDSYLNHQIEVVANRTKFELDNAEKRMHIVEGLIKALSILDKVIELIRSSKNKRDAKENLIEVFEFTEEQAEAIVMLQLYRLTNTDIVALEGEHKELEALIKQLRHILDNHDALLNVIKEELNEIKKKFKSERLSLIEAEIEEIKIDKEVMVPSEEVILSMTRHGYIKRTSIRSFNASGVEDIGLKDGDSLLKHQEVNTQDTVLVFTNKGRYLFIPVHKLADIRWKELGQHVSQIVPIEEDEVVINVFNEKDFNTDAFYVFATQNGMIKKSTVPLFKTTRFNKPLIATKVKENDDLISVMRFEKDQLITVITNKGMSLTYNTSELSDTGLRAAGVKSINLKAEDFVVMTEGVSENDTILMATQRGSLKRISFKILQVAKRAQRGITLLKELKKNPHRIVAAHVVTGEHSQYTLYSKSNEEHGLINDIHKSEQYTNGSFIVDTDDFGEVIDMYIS
T2 sequence (P0C1S7 whole entry): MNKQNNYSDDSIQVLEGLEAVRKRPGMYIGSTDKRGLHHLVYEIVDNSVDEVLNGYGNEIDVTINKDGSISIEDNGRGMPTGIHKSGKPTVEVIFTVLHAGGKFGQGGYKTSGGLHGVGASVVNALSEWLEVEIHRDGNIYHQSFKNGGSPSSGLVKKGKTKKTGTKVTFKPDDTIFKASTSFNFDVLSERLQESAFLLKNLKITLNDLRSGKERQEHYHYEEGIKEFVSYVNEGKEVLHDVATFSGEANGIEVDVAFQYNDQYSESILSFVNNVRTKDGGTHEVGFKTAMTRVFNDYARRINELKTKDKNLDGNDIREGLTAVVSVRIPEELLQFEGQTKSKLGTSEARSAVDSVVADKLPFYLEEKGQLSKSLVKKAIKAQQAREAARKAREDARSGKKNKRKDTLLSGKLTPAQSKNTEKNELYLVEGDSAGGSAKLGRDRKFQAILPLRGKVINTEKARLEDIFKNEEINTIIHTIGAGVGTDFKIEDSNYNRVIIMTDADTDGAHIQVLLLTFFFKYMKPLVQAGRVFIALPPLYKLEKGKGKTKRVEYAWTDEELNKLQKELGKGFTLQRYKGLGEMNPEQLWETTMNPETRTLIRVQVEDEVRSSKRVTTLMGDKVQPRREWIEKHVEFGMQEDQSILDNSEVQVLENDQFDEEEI
Method: Enzyme activity is measured by a decatenation assay that monitors the ATP-dependent unlinking of DNA minicircles from kinetoplast DNA. Analysis is done by gel electrophoresis through 1% agarose/TBE gel. DNA is visualized with an Alpha Imager 2200 Analysis System and the IC50 determined by nonlinear regression analysis with Graphpad Prism software. S. aureus topoismerase IV enzyme subunits, grlA and grlB, are purified to homogeneity from over-expression plasmids in E. coli.

S. aureus DNA gyrase = S. aureus DNA gyrase (Staphylococcus aureus, UniProt P0A0K8+P20831); assay: DNA gyrase supercoiling assay; assay type: biochemical; details: do not inhibit
Chain of S. aureus DNA gyrase (P20831 whole entry): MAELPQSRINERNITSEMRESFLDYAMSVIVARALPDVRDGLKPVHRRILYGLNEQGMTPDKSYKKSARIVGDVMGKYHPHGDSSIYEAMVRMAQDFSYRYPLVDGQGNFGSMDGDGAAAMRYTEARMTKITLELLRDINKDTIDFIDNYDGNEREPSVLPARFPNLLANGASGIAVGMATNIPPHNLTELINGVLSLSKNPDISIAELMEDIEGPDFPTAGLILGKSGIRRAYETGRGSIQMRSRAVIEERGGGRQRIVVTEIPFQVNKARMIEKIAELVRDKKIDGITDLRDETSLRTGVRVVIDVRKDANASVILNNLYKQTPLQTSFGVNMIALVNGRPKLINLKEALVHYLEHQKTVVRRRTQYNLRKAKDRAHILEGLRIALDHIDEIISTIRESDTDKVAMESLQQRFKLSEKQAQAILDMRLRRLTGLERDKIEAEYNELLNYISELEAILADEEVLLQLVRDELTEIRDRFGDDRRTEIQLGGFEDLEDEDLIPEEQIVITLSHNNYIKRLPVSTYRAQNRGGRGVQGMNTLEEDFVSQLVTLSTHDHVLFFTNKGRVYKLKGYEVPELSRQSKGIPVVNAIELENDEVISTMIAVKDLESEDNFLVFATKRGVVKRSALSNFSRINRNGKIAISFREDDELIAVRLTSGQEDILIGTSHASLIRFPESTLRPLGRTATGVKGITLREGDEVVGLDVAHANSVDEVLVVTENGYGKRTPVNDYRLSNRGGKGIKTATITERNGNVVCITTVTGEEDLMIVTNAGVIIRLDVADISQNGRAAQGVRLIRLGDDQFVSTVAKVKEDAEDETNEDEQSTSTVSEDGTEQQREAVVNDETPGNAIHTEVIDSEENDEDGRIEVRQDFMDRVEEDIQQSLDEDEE
Chain of S. aureus DNA gyrase (P0A0K8 whole entry): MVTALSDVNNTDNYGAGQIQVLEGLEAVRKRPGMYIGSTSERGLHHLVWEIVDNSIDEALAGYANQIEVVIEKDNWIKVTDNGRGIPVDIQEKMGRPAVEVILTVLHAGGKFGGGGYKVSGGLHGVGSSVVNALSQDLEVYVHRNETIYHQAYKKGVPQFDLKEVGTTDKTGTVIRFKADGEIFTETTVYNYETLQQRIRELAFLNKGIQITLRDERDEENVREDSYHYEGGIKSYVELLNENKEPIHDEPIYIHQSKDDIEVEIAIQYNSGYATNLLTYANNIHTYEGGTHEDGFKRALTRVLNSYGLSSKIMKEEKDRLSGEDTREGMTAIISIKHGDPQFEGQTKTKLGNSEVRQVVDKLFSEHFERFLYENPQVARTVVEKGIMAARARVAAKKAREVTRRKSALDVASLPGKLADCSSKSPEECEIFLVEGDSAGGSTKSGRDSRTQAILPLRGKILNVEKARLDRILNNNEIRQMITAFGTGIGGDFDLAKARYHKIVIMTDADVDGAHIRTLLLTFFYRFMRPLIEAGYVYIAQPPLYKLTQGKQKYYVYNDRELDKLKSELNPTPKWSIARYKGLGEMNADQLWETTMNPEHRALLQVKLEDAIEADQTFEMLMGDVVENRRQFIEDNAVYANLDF

[2] = test system: CHO (Chinese hamster ovary); details: CHO cells; positive control, known CC50; cited from earlier work
[3] = test system: HEP 2 (laryngeal carcinoma); details: HEP 2 cells; positive control, known CC50; cited from earlier work

SMILES	melting point	MIC (E. coli ATCC 25922)	MIC (S. aureus ATCC 29213)	IC50 (E. coli DNA gyrase)	IC50 [1]	IC50 (S. aureus DNA gyrase)	CC50 [2]	CC50 [3]
CCc1c2s[nH]c(=O)c2c(=O)n2ccc(-c3ccncc3)cc12 (as salt: hydrochloride) [Compound 8, 9-Ethyl-7-pyridin-4-yl-1-thia-2,4a-diaza-cyclopenta[b]naphthalene-3,4-dione hydrochloride]	289 to 290 °C (dec.)							
CCc1c2s[nH]c(=O)c2c(=O)n2ccc(-c3cc(C)nc(C)c3)cc12 (as salt: hydrochloride) [Compound 9, 7-(2,6-Dimethylpyridin-4-yl)-9-ethyl-1-thia-2,4a-diaza-cyclopenta[b]naphthalene-3,4-dione hydrochloride]	279 to 280 °C (dec.)							
CCc1c2s[nH]c(=O)c2c(=O)n2ccc(-c3ccncc3)cc12 [Compound 8, 9-Ethyl-7-pyridin-4-yl-1-thia-2,4a-diaza-cyclopenta[b]naphthalene-3,4-dione hydrochloride]		10 µg/mL	10 µg/mL	< 1 µM	< 10 µM	> 200 µM		
CCc1c2s[nH]c(=O)c2c(=O)n2ccc(-c3cc(C)nc(C)c3)cc12 [Compound 9, 7-(2,6-Dimethylpyridin-4-yl)-9-ethyl-1-thia-2,4a-diaza-cyclopenta[b]naphthalene-3,4-dione hydrochloride]		10 µg/mL	10 µg/mL	< 1 µM	< 10 µM	> 200 µM		
CC(C)(C)c1ccc(C(O)CCCN2CCC(C(O)(c3ccccc3)c3ccccc3)CC2)cc1 (centres unmarked) [Terfenadine]							4.3 to 6.5 µM	3 to 5 µM
